Results from US12458643B2, “Antidepressant/anxiolytic drug in which PAC1 receptor antagonist is used” (KAGOSHIMA UNIVERSITY, priority 2020, dated 2025).

Key:
Assay type in all cases: in vivo, mouse
[1] = tested on: plasma corticosterone level; assay: Repeated corticosterone administration, plasma corticosterone level (ELISA); details: male mice, corticosterone 20 mg/kg s.c. 21 days; single i.p. PA-915 30 mg/kg, ketamine 20 mg/kg; next day
Description: A vehicle (0.5% carboxymethylcellulose solution) or corticosterone (20 mg/kg) was subcutaneously administered (0.1 mL/10 g) to male C57BL/6J mice (7 weeks old) for 21 days. A vehicle (10% DMSO solution; dissolved in saline; n=4), PA-915 (30 mg/kg; n=4) or ketamine (20 mg/kg; n=4) was intraperitoneally administered thereto (0.1 mL/10 g) 3 hours after administration on the 21st day. On the next day, the mice were subjected to the forced swim test and then decapitated, and systemic circulating blood was collected. The plasma corticosterone level was measured using Corticosterone ELISA kit from Cayman Chemical Company. Mice given the vehicle by repeated administration without repeated corticosterone administration were used as a control (n=4). The data was indicated by mean±standard error. **P<0.01 (One-way ANOVA followed by Tukey-Kramer test).

normal mice [2] = assay: Spontaneous motor activity in normal mice (open field test); details: i.p. PA-915 30 mg/kg, ketamine 20 mg/kg, fluoxetine 20 mg/kg, 30 min before vs 30 min after administration
Description: (1) The effects of PA-915, ketamine and the existing drug fluoxetine on normal mice were evaluated by an open field test (test to measure spontaneous locomotion in a novel environment by exploiting the properties of mice to do exploratory behavior in such a novel environment, and using a 45 cm×45 cm box of 30 cm in height).
Male C57BL/6J mice (8 to 12 weeks old) were placed in the box (illuminance: 100 lx) and allowed to freely explore the box for 60 minutes. Then, a vehicle (V: 10% DMSO solution; dissolved in saline; n=8), PA-915 (PA: 30 mg/kg; n=9), ketamine (K: 20 mg/kg; n=8) or fluoxetine (F: 20 mg/kg; n=11) was intraperitoneally administered thereto (0.1 mL/10 g). Spontaneous motor activity was measured by using the total distances traveled for 30 minutes before administration and for 30 minutes after administration as indexes. The data was indicated by mean±standard error. **P<0.01; *P<0.05 (Two-way ANOVA followed by Tukey-Kramer test).

normal mice [3] = assay: Radial maze test in normal mice; details: i.p. PA-915 30 mg/kg, ketamine 20 mg/kg, 30 minutes later, Day 10
Description: (3) The effects of PA-915 and ketamine on normal mice were evaluated by a radial maze test (test to evaluate spatial working memory by exploiting the foraging behavior of mice, and using an apparatus having 40 cm long, 10 cm wide and 12 cm high arms radially arranged in 8 directions).
On Day 0, male C57BL/6J mice (8 weeks old) were acclimatized to the apparatus by free exploration for 10 minutes in the apparatus in a laboratory (illuminance: 200 lx). On Days 1 and 2, the mice were allowed to explore only correct arms baited with a reward (food pellets, 5 mg) for 10 minutes. On Days 3 to 9, the mice were allowed to explore all the arms for 5 minutes at maximum until the mice finished the reward while the ends of the correct arms were baited with the reward. On Day 10, a vehicle (V: 10% DMSO solution; dissolved in saline; n=10), PA-915 (PA: 30 mg/kg; n=10) or ketamine (K: 20 mg/kg; n=10) was intraperitoneally administered thereto (0.1 mL/10 g). The mice were allowed to freely explore the maze from 30 minutes later, and the number of entries to the arms without the reward (the number of errors) was measured. During the test period, the absence of marked change in the body weights of the mice by dietary restriction was confirmed. The data was indicated by mean±standard error. **P<0.01 (One-way ANOVA followed by Tukey-Kramer test).

normal mice [4] = assay: Prepulse inhibition (PPI) test in normal mice; details: i.p. PA-915 30 mg/kg, ketamine 20 mg/kg
Description: A vehicle (V: 10% DMSO solution; dissolved in saline; n=13), PA-915 (PA: 30 mg/kg; n=10) or ketamine (K: 20 mg/kg; n=15) was intraperitoneally administered (0.1 mL/10 g) to male C57BL/6J mice (8 to 12 weeks old), which were then acclimatized to 65 dB background noise for 5 minutes in the apparatus. The mice were randomly stimulated 20 times with 50-msec 120 dB startle sound or with 20-msec 73 dB, 77 dB, and 81 dB prepulse sounds and 50-msec 120 dB startle sound 50 msec after each prepulse sound for 30 minutes from the completion of acclimatization. In this respect, the ratio of PPI was calculated according to [(Average startle amplitude without prepulse)−(Average startle amplitude of trial with prepulse)]/(Average startle amplitude without prepulse)×100. The data was indicated by mean±standard error. **P<0.01; *P<0.05 (One-way ANOVA followed by Tukey-Kramer test).

Structure (SMILES): CNC1(c2ccccc2Cl)CCCCC1=O (stereo not shown) [ketamine]
- effect on plasma corticosterone level [1]: decreased the plasma corticosterone level
- change in spontaneous motor activity (total distance traveled) (normal mice [2]): increase in spontaneous motor activity
- influence on spatial working memory (number of errors, radial maze) (normal mice [3]): decreased spatial cognitive function
- influence on prepulse inhibition (PPI ratio) (normal mice [4]): caused prepulse inhibition deficits
